Experimental findings from ChEMBL document CHEMBL6134863, “Novel Mitochondria-Targeted Asymmetric Heptamethine Cyanine Dye for Cancer Targeted NIR Imaging and Potent Necrosis and Senescence Induction with Prolonged Retention” (J Med Chem, 2025) are described below.

Calls of active or inactive are those of the source. The rule behind the calls is not given here.

Data set [1] can be described thus: Cytotoxicity against human Primary lung fibroblast assessed as decrease in cell viability up to 5 uM incubated for 24 hrs by CCK-8 assay. The class given is toxicity, cell-based. On the technique in general: Tetrazolium dyes change colour on reduction, which living cells bring about.
The nature of data set [2]: Stability of compound at 30 degreeC by thermogravimetric analysis. Type of data set: physicochemical.
Data set [3] in a line: Acute toxicity in BALB/c mouse implanted with mouse 4T1 cells at 5 mg/kg, iv measured for 11 days. The class given is organism-based. The settings on record: in vivo, 264 h, time 11 day.
For the next data set, the system named is Mitochondrial membrane. Briefly: Induction of mitochondrial membrane potential loss in human NCI-H226 cells at 2 uM incubated for 4 hrs by TMRE staining based fluorescence microscopic analysis. Type of data set: cell membranes.
Data set [4] in a line: Antioxidant activity of compound in presence of SO4. Type of data set: functional.
Data set [5] can be described thus: Toxicity in BALB/c mouse implanted with mouse 4T1 cells assessed as kidney damage at 5 mg/kg, iv measured for 11 days by H and E staining based analysis. The settings on record: in vivo, 264 h, time 11 day. The class given is organism-based.
Data set [6] concerns Squamous carcinoma cell line. In words: Antitumor activity against patient-derived Squamous carcinoma cell line xenografted in BALB/c mouse assessed as tumor growth inhibition at 0.5 mg/kg, iv measured for 5 days. The following applies: Homo sapiens, time 5.0 day. The class given is functional, organism-based. A general note: A xenograft is tissue or cells of one species grown in another, often human tumour cells in immunodeficient mice.

A short description of data set [7]: Acute toxicity in BALB/c mouse implanted with mouse 4T1 cells assessed as change in body weight at 5 mg/kg, iv measured for 11 days. Type of data set: organism-based. The settings on record: in vivo, 264 h, time 11 day.
Data set [8] in a line: Antioxidant activity of compound in presence of NH4+. Type of data set: functional.
Data set [9] can be described thus: Antioxidant activity of compound in presence of CO3. The class given is functional.
Data set [10] is described as follows: Solubility of compound in DMSO-H2O. Type of data set: physicochemical.
A short description of data set [11]: Drug uptake in human NCI-H226 cells assessed as increase in fluorescence intensity incubated for 24 hrs by fluorescence based microscopic analysis. The settings on record: nci-h226, 24 h. The class given is ADME, cell-based.
A further data set deals with NCI-H226. Briefly: Induction of ROS production in human NCI-H226 cells at 5 uM incubated for 24 hrs by flow cytometry analysis. The class given is functional, cell-based. In general terms: In flow cytometry, cells or beads pass a laser one at a time.
Data set [12] in a line: Partition coefficient, logP of compound. Type of data set: physicochemical. The following applies: octanol/water.
Another data set has as its system NIH3T3. Briefly: Cytotoxicity against mouse 3T3 cells assessed as decrease in cell viability up to 5 uM incubated for 24 hrs by CCK-8 assay. Type of data set: toxicity, cell-based. The following applies: nih3t3, 24 h.
Data set [13] in a line: Stability of compound in DMSO-H2O incubated for 150 mins by absorbance based analysis. Type of data set: physicochemical. The following applies: 2.5 h.

In the case of `CCCN1/C(=C/C=C2\CCCC(/C=C/C3=[N+](Cc4ccc(C(=O)O)cc4)c4ccccc4C3(C)C)=C2Cl)C(C)(C)c2ccccc21.[Br-]`, the Activity entry is reported as “Non-toxic” in data set [1]; “Non-toxic” in data set [3]; “Non-toxic” in data set [5]; “Non-toxic” in data set [7]; over 80% in the data set on NIH3T3. In addition, the Stability result in data set [2] and in data set [13] was “Stable” each time. Also, the outcome (in the data set on Mitochondrial membrane; in [4]; in data set [8]; in data set [9]; in the data set on NCI-H226) was Active. The TGI result in [6] is “Active”. This molecule also yielded a solubility in data set [10] of 170 µg/mL. Besides, the Drug uptake result in data set [11] was “Active”. In addition, the log partition coefficient (logP) in [12] was found to be 6.09.

As a reminder, the solubility is the concentration that dissolves in the medium under given conditions. Read a high solubility as a readily soluble substance. A word on the logP: it is a log measure of how a compound divides between an organic and an aqueous phase. A high value points to higher lipophilicity.
